Measured values from US20230414735A1, “NEOANTIGENS AND METHODS OF THEIR USE” (priority 2016, published 2023).
Like-named read-outs stand apart in the source and are kept apart here. Where a SMILES comes first, the peptide text is derived from it. Where no end group is shown, it is not given here.

Columns and labels:
[1] = system: HLA-A02:01+ T cells (CD8+ T cells); assay: Immunogenicity assay: CD8+ T cell expansion with peptide-loaded monocyte-derived dendritic cells, multimer/tetramer staining; format: cell-based, human; details: HLA-A02:01^+ T cells co-cultured 10 days with peptide-loaded monocyte-derived dendritic cells; initial and validation multimer preparations; shown as examples of positive multimer staining (FIGS. 3-6)
HLA class I molecule [2] = target: T1, HLA class I molecule (Homo sapiens, UniProt P04439); assay: HLA class I peptide binding affinity assay (inhibition of 125I-radiolabeled probe peptide binding to purified HLA); details: Allele A03.01; read-out: Observed Affinity (IC50; (nM))
T1 construct: made in house; host or cells: EBV-transformed homozygous cell lines, fibroblasts, CIR or 721.22 transfectants; purified from detergent lysates on an anti-HLA antibody column
Summary of the method: (§1)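 Competition by test peptides for binding of an iodinated (chloramine-T) probe peptide to affinity-purified HLA class I from EBV-transformed lines or transfectants. Bound and free peptide separated by TSK gel filtration with radioactivity detection. IC50 approximates KD ([label]<[HLA], IC50≥[HLA]), also compiled as relative binding against positive controls.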

HLA class I molecule [3] = assay: as above; design: species or system human; details: read-out: Observed Affinity (IC50, (nM))
Summary of the method: as §1

HLA Class I molecules = assay: HLA class I binding stability assay (pMHC-I complex dissociation, 125I-labeled β2m, scintillation counts); design: species or system human
[4] = system: ovarian carcinoma patients; details: ovarian carcinoma patients immunized with poly-ICLC in combination with a NYESO-1 peptide vaccine (in addition to Montanide); phase 1 study; cited from earlier work
[5] = allele A02.01, pMHC-I dissociation at 37° C.
[6] = allele A24.02, pMHC-I dissociation at 37° C.

IC50 (HLA class I molecule [3]; allele A02.01) [nM]	Stability (T1/2 (h)) (HLA Class I molecules; allele A02.01, 37° C.) [h]	Stability (T1/2 (h)) (HLA Class I molecules; [5]) [h]	Compound	also measured
101		0.3	KGPELFPLI	IC50 (HLA class I molecule [3]; allele A24.02): 14 nM; Stability (T1/2 (h)) (HLA Class I molecules; [6]): 1.7 h
311		8.9	LMELMAGGDL	
177		0.4	CC[C@H](C)[C@H](NC(=O)[C@@H](N)CC(C)C)C(=O)N[C@@H](CCSC)C(=O)N[C@@H](CCC(N)=O)C(=O)N[C@@H](CC(C)C)C(=O)N[C@@H](CCSC)C(=O)N1CCC[C@H]1C(=O)N[C@@H](Cc1ccccc1)C(=O)NCC(=O)N[C@@H](CS)C(=O)O	
219		24	CLADVLLSV	
223		0.5	ILMELMAGG	
779		1.3	GVYTFLPST	
10	5.1		VLHECNSLYI	
131	1.9		VLHESNSPYI	
125		0.5	RVAKIADFGM	Stability (T1/2 (h)) (HLA Class I molecules; allele B07.02, pMHC-I dissociation at 37° C.): 0.2 h
1760	6.6		CC(C)C[C@H](NC(=O)[C@@H](NC(=O)[C@H](CC(=O)O)NC(=O)[C@H](CC(C)C)NC(=O)[C@@H](NC(=O)[C@@H](N)Cc1ccc(O)cc1)[C@@H](C)O)C(C)C)C(=O)N[C@@H](CCC(=O)O)C(=O)N[C@@H](CCCNC(=N)N)C(=O)N[C@@H](CS)C(=O)O	
390	0.4		SLYIVGFYGA	
558		0.4	GLLLEMLDA	
226	0.8		ALSASNSCFI	
1200		0.4	GVYTFLPSTL	
79	27.3		ALSEHCPTT	
1030	0.4		MNWRPILTII	
6		14.3	KLFSCLSFL	Stability (T1/2 (h)) (HLA Class I molecules; allele A03.01, pMHC-I dissociation at 37° C.): 0.8 h
187	0.9		CC(C)[C@H](N)C(=O)N[C@H](C(=O)N1CCC[C@H]1C(=O)N[C@@H](CS)C(=O)N[C@@H](CCC(=O)O)C(=O)N1CCC[C@H]1C(=O)N1CCC[C@H]1C(=O)N[C@@H](CCC(=O)O)C(=O)N[C@H](C(=O)O)C(C)C)C(C)C	

The next lines start with the compound.

Compound	IC50 (HLA class I molecule [3]; allele A02.01) [nM]	Stability (T1/2 (h)) (HLA Class I molecules; allele A02.01, 37° C.) [h]	Stability (T1/2 (h)) (HLA Class I molecules; [5]) [h]	also measured
ALNSEALSV [HLA-A02:01]				antigen-specific (multimer-double-positive) CD8^+ T cells, multimer staining [1]: antigen-specificity
LLCVWVSSI [HLA-A02:01]				antigen-specific (multimer-double-positive) CD8^+ T cells, multimer staining [1]: antigen-specificity
CC[C@H](C)[C@H](NC(=O)[C@H](Cc1c[nH]c2ccccc12)NC(=O)[C@H](CS)NC(=O)[C@H](Cc1ccccc1)NC(=O)[C@@H](N)Cc1ccccc1)C(=O)N[C@@H](CC(C)C)C(=O)N[C@@H](CO)C(=O)N[C@@H](CS)C(=O)N[C@@H](CCCCN)C(=O)O (H-FFCWILSCK-OH)				IC50 (HLA class I molecule [2]): 185 nM
LVVVGACGV	1210	0.6		
GLLAFWDSQV	10	14.2		
poly-ICLC				patients showing induction of CD4+ and CD8+ T cell, as well as antibody responses to the peptide [4]: > 90%
CC(C)C[C@H](NC(=O)CN)C(=O)N[C@H](C(=O)N[C@@H](CC(=O)O)C(=O)N[C@@H](CCC(=O)O)C(=O)N[C@@H](CCC(N)=O)C(=O)N[C@@H](CCC(N)=O)C(=O)N[C@@H](CCC(=O)O)C(=O)N[C@H](C(=O)O)C(C)C)C(C)C	44	7.4		
YLVIQLQDKF	2060			IC50 (HLA class I molecule [3]; allele A24.02): 2150 nM; Stability (T1/2 (h)) (HLA Class I molecules; [6]): 2.6 h
SMLTGPPARV [HLA-A02:01]				antigen-specific (multimer-double-positive) CD8^+ T cells, multimer staining [1]: antigen-specificity
KLGGGQHGEV	387		0.4	
WLHKRGKYI	1250		1.2	IC50 (HLA class I molecule [3]; allele B08.01): 417 nM; Stability (T1/2 (h)) (HLA Class I molecules; allele B08.01, pMHC-I dissociation at 37° C.): 1.3 h
MNIANLLGA	128	0.3		
LLAFWDSQV	68	12.8		
PLSDLLLEM	404		2.7	
